The subject of assay [1] is rats. The experiment in a line: mCPP-induced anxiety-like behavior in rat social interaction test. The class given is in vivo. As for the experimental part: (§1) The male SD rats (weighing 201.8 to 285.6 g; Charles River Japan Inc.)were used in this study. On the day of behavioral evaluation, the animals were acclimatized to the test environment from 4 hours before the start of the experiment. Sixty minutes after oral administration of a vehicle (0.5 w/v % MC solution) or a test compound (prepared in suspension in 0.5 w/v % MC solution to obtain a dosing concentration of 0.5 mL per 100 g of rat body weight), two rats were allowed to meet each other in an acrylic box (50×50×50 cm). The total time of social interaction behaviors (sniffing, following, grooming and the like) during monitoring for 10 minutes immediately after meeting (between-rats interaction time) were measured with a stopwatch.
Meanwhile, meta-chlorophenylpiperadine hydrochloride (mCPP) is an anxiogenic substance having a 5-HT2 receptor stimulation action. It was reported that mCPP induced anxiety symptoms in healthy subjects and aggravated the symptoms of generalized anxiety disorder in humans. The mCPP-induced anxiety response is an experimental model that well reflects anxiety (for example, generalized anxiety disorder) caused by abnormal signaling especially via 5-HT2 receptors.
Next, the effect on mCPP-induced anxiety was examined. […]

A further assay has as its system male Wistar rats. The experiment in a line: Vogel conflict test in rats. The class given is in vivo, rat. Particulars: 0.03 mg/kg oral, 60 minutes before; 5 min session; vehicle 6.1±0.8 times; P=0.003846, Steel-test. The protocol: This test is to measure drinking counts (number of shocks during drinking) when an electric shock is applied to a water-deprived rat at each time that the rat drinks water. Under this condition, a rat is thought to be placed under a state of conflict between the motivation to drink (positive reinforcing factor) and the aversion to receiving an electric shock (negative reinforcing factor, punishment). When anxiolytics are administered to a rat, anxiety about punishing stimuli is suppressed and behavior in an attempt to take a positive reinforcer is observed. This test is thought to be an animal model of generalized anxiety disorders (Folia Pharmacologica Japonica, 115, p. 5 (2005), Japanese Journal of Clinical Psychopharmacology, 9, p. 2389 (2006)).
The male Wistar rats (weighing 148.4 to 211.7 g; Japan SLC, Inc.) and an operant experimental apparatus were used in 20 this study. The chamber consisted of a soundproof box, and a test cage (25×30×25 cm), a shock generator, a controller, a licking sensor and PC analysis system placed in the soundproof box. […] Current conduction by licking (drinking) was detected with the licking senor and measured with the PC analysis system via the controller. […] Twenty nozzle licks were counted as one drinking response and drinking frequency (drinking count) was determined (pre-value). […]

The test system of a further assay is male ICR mice. The experiment in a line: Marble burying behavior test in mice. The class given is in vivo. Particulars: 3 mg/kg oral, 1 hour before test; marbles counted after 30 minutes; significant. The source says: This test is known as one of the test systems for anxiolytics (Folia Pharmacologica Japonica, 126, p. 94 (2005)). Marble-burying behavior is a behavior of the mouse to bury marbles in spread planer bedding on which the marbles were placed, and is suppressed, without being accompanied by motor inhibition, by selective serotonin reuptake inhibitors (SSRIs). Since the behavior of the mouse to attempt to cover and bury harmless marbles in planer bedding is apparently similar to compulsions in patients with obsessive-compulsive disorders that are repeated while they recognize them as being unreasonable, and also since SSRIs are effective as therapeutic drugs for obsessive-compulsive disorders, and for other reasons, the marble burying behavior is getting positioned as an animal model of obsessive-compulsive disorder
The male ICR mice (weighing 27.6 to 42.9 g; Japan SLC, Inc.) were used in this study. […] At 30 minutes later, the number of marbles more than half-buried in the planer was counted. […]
The effects of the drug are expressed as the actually measured number of buried marbles and the inhibition rate calculated by the following equation.

Assay [2] deals with male SD rats. The experiment in a line: Conditioned fear stress (CFS) test in rats. The settings on record: 0.3 mg/kg, 60 min before retention trial. The class given is in vivo, rat. The source says:
In this test (Folia Pharmacologica Japonica, 113, p. 113 (1999)), the influences of psychological stress resulting from past aversion experience on living organisms can be measured as behavioral suppression (freezing reaction) or autonomic nervous system hyperactivity (increases in respiratory rate and blood pressure).
The male SD rats (weighing 140.2 to 320.0 g; Charles River Japan Inc.) and a contextual learning test system were used in this study. The experimental apparatus is consisted of a soundproof box, and a test cage (20×20×25 cm), a shock generator, a controller, an external monitor and PC analysis system, which were placed in the soundproof box. The test cage has stainless bars on the floor at 1-cm intervals. A scrambled electric current was generated from the shock generator using 35 a command of the special program . The inside of the soundproof box was equipped with a speaker. A buzzer sound of 65 dB was generated via the controller using a command of the special program. The animal behavior within the test cage was recorded with a CCD camera, which was positioned on the ceiling of the soundproof box. […] The percentage of freezing behavior was determined by (Freezing time/Test time)×100. […] According to the same schedule as that on the previous day, only a buzzer sound was generated six times and the duration of freezing behavior was measured. […]

The subject of assay [3] is rats. Nature of the assay: Yohimbine-induced anxiety-like behavior in rat social interaction test. The class given is in vivo. As for the experimental part: as §1, with “stopwatch. Using the method of Test Example 4, the effect of a compound on the anxiety induced with administration of an anxiogenic substance was examined. Yohimbine (adrenalin α2 receptor antagonist) is known as one of the anxiogenic substance. It is thought that locus coeruleus hyperactivity that accompanies α2 receptor antagonizing action is contributory to the anxiety-inducing action of Yohimbine. Anxiety symptoms that develop with administration of Yohimbine to healthy persons were reported to be similar to panic disorders, in the pathophysiology of which abnormal locus coeruleus activity is considered to be largely involved. […]” for “stopwatch.”

Assay [4] relates to male SD rats. Nature of the assay: Rat social interaction test. The class given is in vivo. The settings on record: 0.3 mg/kg oral.
From the text: It is known that these social interactions increase with administration of existing anxiolytics. This test is thought as an animal model of social phobia or generalized anxiety disorders because it is consider that contradictory social environments between two rats cause stress (Eur. J. Pharmacol., 408, p. 41 (2000)).
as §1

Assay [5] relates to male SD rats. Nature of the assay: Elevated plus maze test in rat. The class given is in vivo. The settings on record: 0.1 mg/kg oral. The source says: In this test, a conflict arises between rodent's exploratory drive and an innate aversion to bright open new spaces (open arms), accordingly, it has been reported that drugs having anti-anxiety activity increase the time spent in the open arms and the number of open arm entries, while anxiogenic substance decreases these parameters (Japanese Journal of Clinical Psychopharmacology, 9, p. 2389 (2006)). This test is thought to be an animal model of generalized anxiety disorders (Folia Pharmacologica Japonica, 115, p. 5 (2005), Japanese Journal of Clinical Psychopharmacology, 9, p. 2389 (2006)).
The male SD rats (weighing 133.8 to 260.2 g; Charles River Japan Inc.) were used in this study. An apparatus was used wherein two open arms (50×10 cm) extending on the same line from a 10 cm-square central area and two enclosed arms (50×10 cm) surrounded by a wall of 40 cm height are perpendicularly crossing. Sixty minutes after oral administration of a vehicle (0.5 w/v % MC solution) or a test 20 compound (a suspension in 0.5 w/v % MC solution prepared to obtain a dosing concentration of 0.5 mL per 100 g of rat body weight), each rat was placed in the center of the elevated plus maze with its head facing toward the enclosed arm and immediately observed for its behavior for 5 minutes. The rat behavior on the maze was recorded with a digital video camera positioned on the ceiling of the laboratory. The times spent and number of entries in the open arms, enclosed arms and central platform, and distance travelled were determined using analysis software. The time spent in the open arms, percentage of open arm entries (ratio of the number of entries in the open arms to the total number of entries in the open and enclosed arms) and total distance travelled on the maze during the monitoring period were determined to evaluate the influences of the test compound.

Structures are written as SMILES.

For the compound `Cl.Clc1cccc(N2CCNCC2)c1` [mCPP, meta-chlorophenylpiperadine hydrochloride, reference compound], in the assay with rats [1] (mCPP 0.5 mg/kg oral, 30 minutes before measurement, vehicle 83.4±5.1 seconds, P<0.001, Student's t-test), the “between-rats interaction time (mCPP alone)” value was 32.5 ± 3.6 s.

As to `Cc1ccc(C(=O)Nc2nc(-c3ccco3)c(C(=O)C3CCOCC3)s2)cn1` [compound (IC)], in the assay with male Wistar rats, the “number of electric shocks received (drinking count, test-punished session)” value amounted to 12.7±1.7 times. In addition, the “% inhibition of mouse marble burying behavior” value in the assay with male ICR mice came out at 73.7%. In addition, in the assay on rats [1] (0.3 mg/kg, 30 minutes before mCPP (0.5 mg/kg), mCPP alone 32.5±3.6 seconds, P<0.001, Dunnett test), the “between-rats interaction time (improvement of reduction by mCPP)” value turned out to be 62.4 ± 6.9 s. Further, in the assay with male SD rats [2] (vehicle 59.8±9.6, P=0.01559, Dunnett test), the percentage of freezing behavior in the post-tone period was 23.4 ± 8.1%. For the same compound, in the assay on male SD rats [2] (vehicle 90.2±2.6, P=0.02867, Steel test), the percentage of freezing behavior in the with-tone period was 57.1 ± 9.9%. Further, the “between-rats interaction time (improvement of reduction by Yohimbine)” value in the assay with rats [3] (0.03 mg/kg, 30 minutes before Yohimbine (5 mg/kg), Yohimbine alone 57.6±3.4 seconds, P=0.00019, Steel test) amounted to 90.3 ± 5.0 s. This compound displayed a between-rats interaction time with male SD rats [4] (60 min before, 10 min monitoring, vehicle 85.2 ±7.6 seconds, P=0.01545, Dunnett test) of 119.3 ± 9.0 s. In the assay on male SD rats [4] (vehicle 8635.3 ±506.4 counts, P<0.001, Dunnett test), this compound showed a spontaneous activity of 12922.7 ±646.8 counts. In addition, in the assay with male SD rats [5] (60 min before, 5 minutes, vehicle 21.6 ±7.4 seconds, P=0.01687, Steel test), the “time spent in the open arms” value amounted to 61.6 ± 10.9 s. Moreover, the “percentage of open arm entries” value with male SD rats [5] (vehicle 15.5±3.0%, P=0.04759, Steel test) worked out at 33.4±6.3%. Further, the “total distance travelled on the maze” value in the assay with male SD rats [5] (vehicle 2521.97±95.34 cm, not affected) was determined as 2414.83±102.13 cm.

For `COC(=O)[C@@H]1[C@H]2C[C@H]3c4[nH]c5ccccc5c4CCN3C[C@@H]2CC[C@@H]1O` [Yohimbine, reference compound], in the assay on rats [3] (Yohimbine 5 mg/kg oral, 30 minutes before measurement, vehicle 90.6±7.1 seconds, P=0.0010, Aspin-Welch test), the “between-rats interaction time (Yohimbine alone)” value was 57.6 ± 3.4 s.
